According to PubChem BioAssay (NCI):
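Following 48 hours of exposure in 96-well plates, responses at five concentrations were used to interpolate endpoints linearly. GI50 is the concentration that inhibits growth by half. TGI marks complete inhibition of growth.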

Legend:
Experiment in all cases: NCI-60 cell line screen, 48 h
A498 renal = tested on: A498 renal
CCRF-CEM leukemia = tested on: CCRF-CEM leukemia
HOP-92 NSCLC = tested on: HOP-92 NSCLC
NCI-H522 lung = tested on: NCI-H522 lung
OVCAR-4 ovarian = tested on: OVCAR-4 ovarian
OVCAR-5 ovarian = tested on: OVCAR-5 ovarian
SK-OV-3 ovarian = tested on: SK-OV-3 ovarian
SW-620 colon = tested on: SW-620 colon
TK-10 renal = tested on: TK-10 renal
SR leukemia = tested on: SR leukemia
MALME-3M melanoma = tested on: MALME-3M melanoma

| SMILES | TGI (A498 renal) | TGI (CCRF-CEM leukemia) | TGI (HOP-92 NSCLC) | TGI (NCI-H522 lung) | TGI (OVCAR-4 ovarian) | TGI (OVCAR-5 ovarian) | TGI (SK-OV-3 ovarian) | TGI (SW-620 colon) | TGI (TK-10 renal) | TGI (SR leukemia) | TGI (MALME-3M melanoma) | GI50 (CCRF-CEM leukemia) | GI50 (HOP-92 NSCLC) | GI50 (MALME-3M melanoma) | GI50 (NCI-H522 lung) | GI50 (OVCAR-4 ovarian) | GI50 (OVCAR-5 ovarian) | GI50 (SK-OV-3 ovarian) | GI50 (SW-620 colon) |
| --- | --- | --- | --- | --- | --- | --- | --- | --- | --- | --- | --- | --- | --- | --- | --- | --- | --- | --- | --- |
| C[Si](C)(OCCS(=O)(=O)O)C1(Cc2cccc3ccccc23)S(=O)(=O)OCCOS1(=O)=O | 30.8 µM | 45.9 µM | 50.7 µM | 30.5 µM | 52.3 µM | 33.1 µM | 35.6 µM | 33.7 µM | 50.9 µM |  |  |  |  |  |  |  |  |  |  |
| COc1ccc(-n2cnnc2-c2nsc3ccccc23)cc1 |  | > 100 µM | > 100 µM |  | > 100 µM | > 100 µM |  | > 100 µM | > 100 µM | > 100 µM |  |  |  |  |  |  |  |  |  |
| CC(C)OP(=O)(OC(C)C)/C(I)=N/Nc1ccc([N+](=O)[O-])cc1 | > 100 µM | > 100 µM | > 100 µM | > 100 µM | > 100 µM | > 100 µM | > 100 µM | > 100 µM | > 100 µM | > 100 µM | > 100 µM |  |  |  |  |  |  |  |  |
| CC(NC(=O)C(C)NC(=O)C(N)CCP(C)(=O)O)C(=O)O (stereo not drawn) | > 100 µM | > 100 µM | > 100 µM | > 100 µM | > 100 µM | > 100 µM | > 100 µM | > 100 µM |  |  | > 100 µM |  |  |  |  |  |  |  |  |
| Nc1nc(SCc2ccc([N+](=O)[O-])cc2)nc2c1ncn2C1OC(COP(=O)(O)O)C(O)C1O (stereo not drawn) | > 100 µM | > 100 µM | > 100 µM | > 100 µM | > 100 µM | > 100 µM | > 100 µM | > 100 µM | > 100 µM | > 100 µM | > 100 µM |  |  |  |  |  |  |  |  |
| Cc1ccc(N=N/C(=N\NC(=O)c2ccc(C)cc2)c2ccc(N(CCC#N)CCC#N)cc2C)cc1 | > 100 µM | > 100 µM | > 100 µM |  | > 100 µM | > 100 µM | > 100 µM | > 100 µM | > 100 µM | > 100 µM |  |  |  |  |  |  |  |  |  |
| CCOP(=O)(OCC)/C(C#N)=C/c1cn(C)cn1 | > 100 µM | > 100 µM | > 100 µM | > 100 µM | > 100 µM | > 100 µM | > 100 µM | > 100 µM | > 100 µM | > 100 µM | > 100 µM |  |  |  |  |  |  |  |  |
| CC1=Nc2nc(Cl)cn2C(=O)C1(Cl)Cl | > 10 µM | > 10 µM |  | > 10 µM | > 10 µM | > 10 µM | > 10 µM | > 10 µM | > 10 µM | > 10 µM | > 10 µM |  |  |  |  |  |  |  |  |
| N[C@H](C(=O)O)[C@H]1ON=C(Cl)[C@@H]1O | 137 µM | > 246 µM | 269 µM | 62.6 µM | 42.2 µM | > 166 µM | > 231 µM | > 550 µM |  |  | > 255 µM | 5.15 µM | 52.2 µM | 40.2 µM | > 25.8 µM | 5.32 µM | 13.8 µM | 4.86 µM | 8.09 µM |
| Cc1ccc(N2Cc3c(ccc4ccccc34)OP2(=O)Oc2ccc(Cl)c(C)c2)cc1 (stereo not drawn) | > 100 µM | > 100 µM | > 100 µM | > 100 µM | > 100 µM | > 100 µM | > 100 µM | > 100 µM |  |  | > 100 µM |  |  |  |  |  |  |  |  |
